Test results: ChEMBL document CHEMBL5230114, “Current development of CFTR potentiators in the last decade” (Eur J Med Chem, 2020)

Assays:
[1] = target: Cystic fibrosis transmembrane conductance regulator (Homo sapiens, UniProt P13569, W1282X); assay: Potentiation of CFTR W1282X mutant (unknown origin) expressed in rat FRT cells; type: cell-based
[2] = tested on: Cystic fibrosis transmembrane conductance regulator (Homo sapiens), P13569 [F508del]; assay: Potentiation of CD4-HRP tagged CFTR F508del mutant NBD1 (unknown origin) expressed in MDCK cells assessed as increase in chloride current by measuring fold increase in luminescence signal incubated for 24 hrs relative to control; type: cell-based; details: filed as activator
Sequence of Cystic fibrosis transmembrane conductance regulator (Homo sapiens), P13569 [F508del] (P13569 as listed by the source): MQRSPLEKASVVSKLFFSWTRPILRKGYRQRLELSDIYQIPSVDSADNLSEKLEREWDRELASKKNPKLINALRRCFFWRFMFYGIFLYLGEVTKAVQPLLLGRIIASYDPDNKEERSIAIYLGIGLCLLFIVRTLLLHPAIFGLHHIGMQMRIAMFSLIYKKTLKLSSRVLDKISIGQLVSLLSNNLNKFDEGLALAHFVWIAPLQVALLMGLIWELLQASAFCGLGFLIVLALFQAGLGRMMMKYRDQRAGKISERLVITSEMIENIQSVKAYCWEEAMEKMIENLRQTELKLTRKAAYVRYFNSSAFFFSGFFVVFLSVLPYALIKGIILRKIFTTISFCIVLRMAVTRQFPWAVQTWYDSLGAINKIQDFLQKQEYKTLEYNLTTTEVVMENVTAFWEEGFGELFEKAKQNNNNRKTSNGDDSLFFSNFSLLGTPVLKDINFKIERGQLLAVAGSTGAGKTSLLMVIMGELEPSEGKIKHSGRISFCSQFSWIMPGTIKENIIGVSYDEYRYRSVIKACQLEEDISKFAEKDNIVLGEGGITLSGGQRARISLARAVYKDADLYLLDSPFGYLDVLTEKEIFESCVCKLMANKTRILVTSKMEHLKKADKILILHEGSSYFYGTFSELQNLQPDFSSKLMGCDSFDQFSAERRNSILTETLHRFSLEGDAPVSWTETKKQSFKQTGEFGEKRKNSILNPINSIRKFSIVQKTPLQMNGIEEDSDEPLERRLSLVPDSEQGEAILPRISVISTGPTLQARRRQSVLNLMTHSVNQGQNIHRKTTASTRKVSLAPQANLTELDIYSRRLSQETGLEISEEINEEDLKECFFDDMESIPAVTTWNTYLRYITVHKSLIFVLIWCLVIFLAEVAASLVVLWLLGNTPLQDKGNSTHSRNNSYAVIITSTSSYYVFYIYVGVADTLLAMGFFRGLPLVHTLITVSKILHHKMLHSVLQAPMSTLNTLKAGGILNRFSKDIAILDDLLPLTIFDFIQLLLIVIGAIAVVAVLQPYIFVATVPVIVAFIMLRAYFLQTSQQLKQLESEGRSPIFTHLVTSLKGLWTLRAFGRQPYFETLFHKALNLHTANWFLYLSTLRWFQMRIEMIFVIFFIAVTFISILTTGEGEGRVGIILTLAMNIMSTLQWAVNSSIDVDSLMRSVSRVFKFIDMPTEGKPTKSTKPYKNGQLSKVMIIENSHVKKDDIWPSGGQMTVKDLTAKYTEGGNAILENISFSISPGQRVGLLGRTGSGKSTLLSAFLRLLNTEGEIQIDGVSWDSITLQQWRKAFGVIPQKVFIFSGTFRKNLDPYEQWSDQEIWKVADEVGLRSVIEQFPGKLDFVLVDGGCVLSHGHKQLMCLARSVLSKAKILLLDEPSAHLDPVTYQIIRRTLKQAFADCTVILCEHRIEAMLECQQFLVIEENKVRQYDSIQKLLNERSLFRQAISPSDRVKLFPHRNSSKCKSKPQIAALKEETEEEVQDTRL

[3] = target: Cystic fibrosis transmembrane conductance regulator (Homo sapiens, UniProt P13569, F508DEL); assay: Potentiation of CFTR F508del mutant activity (unknown origin)
Sequence of Cystic fibrosis transmembrane conductance regulator (Homo sapiens, UniProt P13569, F508DEL) (P13569 as listed by the source): as above

[4] = tested on: Cystic fibrosis transmembrane conductance regulator (Homo sapiens), P13569 [F508del]; assay: Potentiation of CFTR F508del mutant (unknown origin) expressed in rat FRT cells assessed as increase in chloride current by measuring maximal effect at 30 uM in presence of forskolin relative to control; type: cell-based; details: filed as activator
[5] = tested on: Cystic fibrosis transmembrane conductance regulator (Rattus norvegicus), P34158 [UNDEFINED MUTATION]; assay: Potency index, ratio of genistein EC50 to test compound EC50 for potentiation of CFTR F508del mutant in rat FRT cells assessed as increase in iodide influx in presence of forskolin; type: cell-based
Sequence of Cystic fibrosis transmembrane conductance regulator (Rattus norvegicus), P34158 [UNDEFINED MUTATION] (P34158 whole entry, looked up, stated change not applied): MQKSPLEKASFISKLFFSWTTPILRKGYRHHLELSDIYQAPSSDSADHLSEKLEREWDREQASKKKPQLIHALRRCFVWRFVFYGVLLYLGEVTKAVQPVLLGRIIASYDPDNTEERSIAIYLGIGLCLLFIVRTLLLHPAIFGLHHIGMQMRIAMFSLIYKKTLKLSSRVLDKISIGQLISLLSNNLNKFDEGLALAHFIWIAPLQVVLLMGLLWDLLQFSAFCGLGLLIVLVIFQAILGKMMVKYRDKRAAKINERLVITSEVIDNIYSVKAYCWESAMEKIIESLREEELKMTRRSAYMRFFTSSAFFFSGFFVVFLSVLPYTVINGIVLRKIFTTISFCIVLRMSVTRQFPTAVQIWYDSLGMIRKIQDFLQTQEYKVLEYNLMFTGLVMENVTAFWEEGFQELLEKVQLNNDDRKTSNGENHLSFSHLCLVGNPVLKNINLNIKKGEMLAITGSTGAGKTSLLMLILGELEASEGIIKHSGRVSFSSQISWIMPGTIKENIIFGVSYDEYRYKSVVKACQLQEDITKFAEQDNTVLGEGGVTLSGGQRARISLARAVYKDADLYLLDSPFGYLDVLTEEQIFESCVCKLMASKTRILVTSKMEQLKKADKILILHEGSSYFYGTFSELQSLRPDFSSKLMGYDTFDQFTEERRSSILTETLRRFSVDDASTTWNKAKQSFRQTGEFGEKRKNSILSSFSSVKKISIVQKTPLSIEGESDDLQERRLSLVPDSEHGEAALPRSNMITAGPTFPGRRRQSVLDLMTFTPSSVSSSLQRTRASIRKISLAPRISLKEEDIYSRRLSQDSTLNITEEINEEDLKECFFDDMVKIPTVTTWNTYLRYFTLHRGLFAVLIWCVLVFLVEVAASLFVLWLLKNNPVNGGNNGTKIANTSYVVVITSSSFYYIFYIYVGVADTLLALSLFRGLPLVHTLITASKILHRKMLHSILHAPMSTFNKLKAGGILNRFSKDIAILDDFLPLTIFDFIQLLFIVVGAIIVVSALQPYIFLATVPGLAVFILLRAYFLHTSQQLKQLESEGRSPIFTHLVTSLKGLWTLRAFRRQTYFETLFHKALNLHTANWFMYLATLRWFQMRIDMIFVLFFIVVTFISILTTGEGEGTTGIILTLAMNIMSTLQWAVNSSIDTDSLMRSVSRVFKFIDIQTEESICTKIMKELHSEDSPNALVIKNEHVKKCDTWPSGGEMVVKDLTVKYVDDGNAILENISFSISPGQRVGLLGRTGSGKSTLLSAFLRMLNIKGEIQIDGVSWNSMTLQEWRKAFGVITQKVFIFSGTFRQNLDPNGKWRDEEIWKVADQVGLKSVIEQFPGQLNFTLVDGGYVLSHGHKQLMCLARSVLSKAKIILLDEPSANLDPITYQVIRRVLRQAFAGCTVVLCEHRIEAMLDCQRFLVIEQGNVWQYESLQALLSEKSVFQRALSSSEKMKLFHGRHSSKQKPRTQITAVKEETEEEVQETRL

[6] = target: Cystic fibrosis transmembrane conductance regulator (Rattus norvegicus, UniProt P34158, F508DEL); assay: Potentiation of CFTR F508del mutant in rat FRT cells assessed as increase in iodide influx in presence of forskolin; type: cell-based
Sequence of Cystic fibrosis transmembrane conductance regulator (Rattus norvegicus, UniProt P34158, F508DEL) (P34158 whole entry F508del, looked up): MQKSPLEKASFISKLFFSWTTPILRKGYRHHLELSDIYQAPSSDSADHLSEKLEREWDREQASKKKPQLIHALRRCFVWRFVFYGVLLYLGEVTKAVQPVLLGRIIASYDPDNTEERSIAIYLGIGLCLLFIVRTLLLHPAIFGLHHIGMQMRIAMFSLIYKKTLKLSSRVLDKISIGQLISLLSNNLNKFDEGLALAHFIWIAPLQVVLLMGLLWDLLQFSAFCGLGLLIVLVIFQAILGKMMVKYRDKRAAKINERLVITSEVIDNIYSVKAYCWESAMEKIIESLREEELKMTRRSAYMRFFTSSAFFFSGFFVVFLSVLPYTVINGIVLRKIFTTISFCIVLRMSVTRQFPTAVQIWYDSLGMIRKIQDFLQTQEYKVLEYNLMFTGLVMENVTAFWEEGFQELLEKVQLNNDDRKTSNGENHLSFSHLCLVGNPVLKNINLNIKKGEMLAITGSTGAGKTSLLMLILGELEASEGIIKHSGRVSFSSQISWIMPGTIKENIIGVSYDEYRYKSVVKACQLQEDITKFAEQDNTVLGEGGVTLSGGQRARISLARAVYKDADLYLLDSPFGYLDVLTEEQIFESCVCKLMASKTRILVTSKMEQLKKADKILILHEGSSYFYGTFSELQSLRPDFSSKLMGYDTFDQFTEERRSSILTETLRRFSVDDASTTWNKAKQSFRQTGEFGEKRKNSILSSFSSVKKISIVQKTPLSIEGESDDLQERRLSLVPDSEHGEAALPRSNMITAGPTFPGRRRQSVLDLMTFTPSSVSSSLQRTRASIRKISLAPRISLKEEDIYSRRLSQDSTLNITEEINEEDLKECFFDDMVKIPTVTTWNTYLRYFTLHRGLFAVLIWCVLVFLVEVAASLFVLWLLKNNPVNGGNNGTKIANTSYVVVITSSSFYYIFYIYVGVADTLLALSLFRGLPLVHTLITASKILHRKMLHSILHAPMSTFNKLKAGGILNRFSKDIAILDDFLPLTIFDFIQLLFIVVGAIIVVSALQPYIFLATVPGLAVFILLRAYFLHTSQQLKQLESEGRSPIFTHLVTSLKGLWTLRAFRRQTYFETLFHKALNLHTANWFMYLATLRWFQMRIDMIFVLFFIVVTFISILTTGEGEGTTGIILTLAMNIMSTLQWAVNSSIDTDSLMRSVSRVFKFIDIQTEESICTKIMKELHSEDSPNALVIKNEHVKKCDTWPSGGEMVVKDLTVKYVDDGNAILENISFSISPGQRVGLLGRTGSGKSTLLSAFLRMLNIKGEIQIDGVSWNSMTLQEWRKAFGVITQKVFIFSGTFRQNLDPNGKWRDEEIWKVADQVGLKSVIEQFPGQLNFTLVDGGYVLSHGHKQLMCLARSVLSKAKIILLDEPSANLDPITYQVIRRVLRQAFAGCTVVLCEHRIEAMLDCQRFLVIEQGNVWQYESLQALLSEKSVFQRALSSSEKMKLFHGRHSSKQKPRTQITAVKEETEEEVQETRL

Row | EC50 [1] [nM] | fold change (FC) [2] | SMILES | also measured
1 | 600 | – | CCc1ccc(NS(=O)(=O)c2cn(Cc3ccccn3)c3ncccc23)cc1 | –
2 | – | 2 | COc1c(C(=O)NCc2ccc(F)cc2Cl)sc2ccccc12 | –
3 | – | – | CN(C(=O)Cc1c[nH]c2ccccc12)[C@H](C(=O)Nc1ccc(F)cc1)c1ccccc1 | EC50 [3]: 90 nM
4 | – | – | COc1ccc(CNC(=O)c2sc3ccc(Cl)cc3c2OC)c(OC)c1 | Activity [4]: 50%
5 | – | – | CN(C(=O)Cc1c[nH]c2ccccc12)[C@H](C(=O)Nc1ccc(-n2cc(CCCF)nn2)cc1)c1ccccc1 | EC50 [3]: 1100 nM
6 | 1000 | – | CCCCCn1cc(S(=O)(=O)Nc2ccc(CC)cc2)c2cccnc21 | –
7 | – | 1.7 | COc1cc(CNC(=O)c2sc3ccccc3c2OC)cc(OC)c1 | –
8 | – | 2.4 | COc1c(C(=O)NCc2ccccc2Br)sc2ccccc12 | –
9 | – | – | CC(C)c1ccc(NC(=O)C(c2ccccc2)N(C)C(=O)Cc2c[nH]c3ccccc23)cc1 (stereo unspecified) | Ratio EC50 [5]: 100; EC50 [6]: 70 nM
10 | 700 | – | CCc1ccc(NS(=O)(=O)c2cn(Cc3ccccc3C#N)c3ncccc23)cc1 | –
